Laboratory results taken from article PMC6753678, “Fueling Open Innovation for Malaria Transmission-Blocking Drugs: Hundreds of Molecules Targeting Early Parasite Mosquito Stages” (Frontiers in Microbiology, 2019).

Key:
[1] = tested on: P. falciparum late stage (stages IV-V) gametocytes; test: P. falciparum late stage gametocyte ATP depletion assay (Pf GC-ATP); details: 1: YES; 0: NO; >10-fold selectivity over cytotoxicity
[2] = tested on: HepG2 cells; test: HepG2 cytotoxicity assay; details: HepG2 cytotoxicity unified across screens; >25 set to 25.00
Summary of the method: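 Here viability after a 48 h compound incubation (37°C, humidified 5% CO2) is measured by fluorescence and expressed as percent inhibition, with doxorubicin at 50 μM and DMSO as the bounding controls.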

[3] = tested on: P. falciparum late stage (stages IV-V) gametocytes; design: method as in Almela et al 2016; details: P. falciparum late stage gametocyte ATP assay, TCAMS screen; ref Almela et al 2016; read-out: Pf GCT ATP IC50; cited from earlier work

Row | Structure (SMILES) | Is compound selective in assay? Pf GC-ATP active? [1] | Unified cytotox [2] [µM] | IC50 [3] [nM]
1 | O=C(NCCCCN1CCC(c2c[nH]c3ccc(-c4ccccc4)cc23)CC1)c1ccc(-c2ccccc2)cc1.O=C(O)C(=O)O [TCMDC-139064] | 0 (0: NO) | 9.40 | 1830
2 | CCCCCCCN1CC[C@@H](CCCc2ccnc3ccc(OC)cc23)[C@@H](CCN)C1.O=C(O)C(=O)O [TCMDC-139278] | 1 (1: YES) | 2.98 | 270
3 | COc1ccc(COc2cc(NCCCN)nc3ccccc23)cc1 [TCMDC-139286] | 1 (1: YES) | 13.98 | 560
4 | O=C(/C=C/c1ccc(Cl)c(Cl)c1)NCCCCCN1CCCC(CNS(=O)(=O)c2cccc(C(F)(F)F)c2)C1 (stereo not drawn) [TCMDC-139597] | 0 (0: NO) | 3.80 | 8630
5 | CC(C)CCNC(=O)c1cnc2c(O)cccc2c1Nc1cccc(NC(=O)c2ccc(F)cc2)c1.O=C(O)C(F)(F)F [TCMDC-139606] | 0 (0: NO) | 5.27 | 1270
6 | O=C(Nc1ccc(Oc2ccccc2)cc1)N(CCN1CCCC1)Cc1ccc(-c2ccc(CN3CCNCC3)cc2)cc1.O=C(O)C(F)(F)F [TCMDC-139652] | 0 (0: NO) | 7.08 | 1020
7 | COc1ccc(CCNC(C)Cc2ccc(C(=O)Nc3ccc(CC(C)NCCc4cccc(Cl)c4)cc3)cc2)cc1 (stereo not drawn) [TCMDC-139750] | 0 (0: NO) | 2.40 | 620
8 | CC(CCCC(=O)Nc1ccc(CC(C)NCCc2cccc(Cl)c2)cc1)NCCc1cccc(Cl)c1 (stereo not drawn) [TCMDC-139798] | 0 (0: NO) | 4.50 | 820
9 | CC(CCCCC(=O)Nc1ccc(CC(C)NCCc2cccc(Cl)c2)cc1)NCCc1cccc(Cl)c1 (stereo not drawn) [TCMDC-139799] | 0 (0: NO) | 6.59 | 1660
10 | CCCCCCCN1CC[C@@H](CCCc2ccnc3ccc(OCC4CCCNC4)cc23)[C@@H](CC)C1.Cl (stereo partly drawn) [TCMDC-139816] | 1 (1: YES) | 4.18 | 300
11 | CCCCCCCN1CC[C@@H](CCCc2ccnc3ccc(OCCC4CCNCC4)cc23)[C@@H](CC)C1.Cl [TCMDC-139819] | 1 (1: YES) | 4.50 | 420
12 | CCCCCCCN1CC[C@@H](CCCc2ccnc3ccc(OCCCCN/C(N)=N/O)cc23)[C@@H](CC)C1.O=C(O)C(=O)O [TCMDC-139839] | 1 (1: YES) | 17.20 | 470
13 | CC(Cc1ccc(COc2ccc(CC(CO)NCCc3cccc(Cl)c3)cc2)cc1)NCCc1cccc(Cl)c1.Cl (stereo not drawn) [TCMDC-139844] | 0 (0: NO) | 3.50 | 1390
14 | Cl.O=C(/C=C/c1ccc(Cl)c(Cl)c1)N1CCC(CCN2CCC(c3c[nH]c4cnccc34)CC2)CC1 [TCMDC-140136] | 1 (1: YES) | 7.21 | 200
15 | Cc1cccc2[nH]cc(C3CCN(CC4CCC(NC(=O)/C=C/c5ccc(Cl)c(Cl)c5)CC4)CC3)c12.Cl (stereo not drawn) [TCMDC-140137] | 0 (0: NO) | 2.95 | 1450
16 | COc1cc(NCC(C)CNCc2cn(Cc3ccccc3)c3ccccc23)nc2ccccc12 (stereo not drawn) [TCMDC-140496] | 0 (0: NO) | 5.00 | 1710
17 | CN(C)CCN(Cc1ccccc1-c1ccc(CNCCc2ccccc2)cc1)C(=O)c1ccccc1.O=C(O)C(F)(F)F [TCMDC-140532] | 0 (0: NO) | 7.54 | 780
18 | CC(C)CNCc1cccc(-c2cccc(CN(CCCN3CCN(C)CC3)C(=O)/C=C/c3ccccc3)c2)c1.O=C(O)C(F)(F)F [TCMDC-140541] | 1 (1: YES) | 7.47 | 560
19 | CN1CCN(CCCN(Cc2cccc(-c3cccc(CNC4CCCC4)c3)c2)C(=O)/C=C/c2ccccc2)CC1.O=C(O)C(F)(F)F [TCMDC-140543] | 0 (0: NO) | 7.17 | 800
20 | CC(C)CNCc1cccc(-c2ccc(CN(CCCN3CCN(C)CC3)C(=O)/C=C/c3ccccc3)cc2)c1.O=C(O)C(F)(F)F [TCMDC-140545] | 1 (1: YES) | 6.65 | 630

Row | Structure (SMILES) | Is compound selective in assay? Pf GC-ATP active? [1] | Unified cytotox [2] [µM] | IC50 [3] [nM]
21 | CC(C)CNCc1ccc(-c2ccc(CN(CCCN3CCN(C)CC3)C(=O)/C=C/c3ccccc3)cc2)cc1.O=C(O)C(F)(F)F [TCMDC-140546] | 0 (0: NO) | 6.99 | 1000
22 | CC(C)CNCc1ccc(-c2cccc(CN(CCN(C)C)C(=O)CCC3CCCC3)c2)cc1.O=C(O)C(F)(F)F [TCMDC-140553] | 1 (1: YES) | 5.50 | 540
23 | CC(C)CNCc1cccc(-c2cccc(CN(CCCN3CCN(C)CC3)C(=O)CCC3CCCC3)c2)c1.O=C(O)C(F)(F)F [TCMDC-140554] | 0 (0: NO) | 4.55 | 600
24 | CN1CCN(CCCN(Cc2cccc(-c3cccc(CNC4CCCC4)c3)c2)C(=O)CCC2CCCC2)CC1.O=C(O)C(F)(F)F [TCMDC-140555] | 0 (0: NO) | 7.50 | 810
25 | CC(C)CNCc1ccc(-c2ccc(CN(CCCN3CCN(C)CC3)C(=O)CCC3CCCC3)cc2)cc1.O=C(O)C(F)(F)F [TCMDC-140559] | 0 (0: NO) | 5.39 | 540
26 | CN1CCN(CCCN(Cc2ccc(-c3ccc(CNC4CCCC4)cc3)cc2)C(=O)CCC2CCCC2)CC1.O=C(O)C(F)(F)F [TCMDC-140560] | 1 (1: YES) | 6.00 | 530
27 | O=C(O)C(F)(F)F.O=C(c1cccs1)N(Cc1cccc(-c2ccc(CNC3CCCC3)cc2)c1)C1CCN(Cc2ccccc2)CC1 [TCMDC-140567] | 0 (0: NO) | 7.10 | 850
28 | CC(C)CNCc1cccc(-c2cccc(CN(CCN(C)C)C(=O)Nc3ccccc3)c2)c1.O=C(O)C(F)(F)F [TCMDC-140592] | 1 (1: YES) | 15.78 | 660
29 | CN1CCN(CCCN(Cc2ccc(-c3cccc(CNC4CCCC4)c3)cc2)C(=O)Nc2ccccc2)CC1.O=C(O)C(F)(F)F [TCMDC-140605] | 1 (1: YES) | 14.26 | 180
30 | O=C(NCCc1ccccc1)N(Cc1cccc(-c2ccc(CNC3CCCC3)cc2)c1)C1CCN(Cc2ccccc2)CC1.O=C(O)C(F)(F)F [TCMDC-140618] | 0 (0: NO) | 7.42 | 1310
31 | CN(C)CCN(Cc1ccccc1-c1ccc(CNCCc2ccccc2)cc1)C(=O)NC1CCCCC1.O=C(O)C(F)(F)F [TCMDC-140626] | 1 (1: YES) | 6.40 | 350
32 | CC(C)CNCc1ccc(-c2cccc(CN(C(=O)NC3CCCCC3)C3CCN(Cc4ccccc4)CC3)c2)cc1.O=C(O)C(F)(F)F [TCMDC-140628] | 0 (0: NO) | 1.81 | 1660
33 | CC(C)CNCc1cccc(-c2cccc(CN(CCCN3CCN(C)CC3)C(=O)NC3CCCCC3)c2)c1.O=C(O)C(F)(F)F [TCMDC-140633] | 0 (0: NO) | 16.75 | 1780
34 | O=C(C1CC1c1ccccc1)N(Cc1ccc(-c2ccc(CNCCc3ccccc3)cc2)cc1)C1CCNCC1.O=C(O)C(F)(F)F (stereo not drawn) [TCMDC-141443] | 1 (1: YES) | 6.70 | 390
35 | O=C(CC1CCCC1)N(Cc1ccc(-c2ccc(CNC3Cc4ccccc4C3)cc2)cc1)CC1CCCCN1.O=C(O)C(F)(F)F (stereo not drawn) [TCMDC-141446] | 0 (0: NO) | 6.47 | 1000
36 | CC(C)CC(=O)N(Cc1ccc(-c2ccc(CNC3Cc4ccccc4C3)cc2)cc1)C1CCNCC1.O=C(O)C(F)(F)F [TCMDC-141449] | 0 (0: NO) | 6.20 | 630
37 | O=C(COc1ccccc1)N(Cc1ccc(-c2ccc(CNC3Cc4ccccc4C3)cc2)cc1)C1CCNCC1.O=C(O)C(F)(F)F [TCMDC-141450] | 0 (0: NO) | 7.80 | 990
38 | CN1CCC(C(=O)N(Cc2ccc(-c3ccc(CNCCc4ccccc4)cn3)cc2)C2CCN(Cc3ccccc3)CC2)CC1.O=C(O)C(F)(F)F [TCMDC-141552] | 1 (1: YES) | 9.27 | 900
39 | CCN(CC)CCN(Cc1ccc(-c2ccc(C(F)(F)F)cc2)cc1)C(=O)c1ccc(-c2ccc(NC(=O)OC)cc2C)cc1 [TCMDC-141558] | 0 (0: NO) | 5.40 | 3710
40 | CCN(CC)CCCNc1ncc2c(-c3ccc(NC(=O)Nc4cc(C(F)(F)F)ccc4F)cc3)nn(C)c2n1.O=C(O)C(F)(F)F [TCMDC-141583] | 0 (0: NO) | 9.50 | 3480
